Measured values reported in patent US20210276987A1, “PHARMACEUTICAL AGENTS FOR USE IN SMOKING AND TOBACCO CESSATION” (Washington State University, priority 2018, published 2021).

Key:
UGT1A9 = UGT1A9 (Homo sapiens, UniProt O60656); settings: Table 10
CYP2C9 = CYP2C9 (Homo sapiens, UniProt P11712); assay: CYP2C9 inhibition assay, human liver microsomes, diclofenac probe (cocktail); settings: Table 6
UGT2B10 = biological target: T1, UGT2B10 (Homo sapiens, UniProt P36537); assay: biochemical
T1 sequence (P36537 24-528): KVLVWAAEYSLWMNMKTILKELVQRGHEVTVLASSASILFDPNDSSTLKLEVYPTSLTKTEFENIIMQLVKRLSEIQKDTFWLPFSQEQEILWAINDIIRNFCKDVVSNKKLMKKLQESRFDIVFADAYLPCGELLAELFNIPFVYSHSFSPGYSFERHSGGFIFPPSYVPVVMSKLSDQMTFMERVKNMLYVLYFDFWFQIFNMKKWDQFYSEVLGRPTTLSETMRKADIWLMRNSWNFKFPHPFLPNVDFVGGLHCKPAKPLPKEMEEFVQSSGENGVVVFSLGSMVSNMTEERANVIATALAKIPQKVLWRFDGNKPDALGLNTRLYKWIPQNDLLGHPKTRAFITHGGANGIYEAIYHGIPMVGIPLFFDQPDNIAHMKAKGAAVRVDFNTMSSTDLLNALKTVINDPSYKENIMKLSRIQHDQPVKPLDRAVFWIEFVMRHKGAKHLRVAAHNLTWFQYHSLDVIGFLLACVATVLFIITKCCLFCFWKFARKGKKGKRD
Protocol: Initial screening assays were performed as described above for the CYP assays using 1 μM or 10 μM of each of the NAs. The inhibitory effects of each agent against UGT2B10 was performed using the known UGT2B10-specific probe substrate, nicotine, in pooled human liver microsomes. […] Pre-incubations containing 500 μM nicotine and 1 or 10 μM NA were subsequently performed at 37° C. in 50 mM Tris-HCl buffer (pH 7.5, in a final volume of 50 μL) and 10 mM MgCl2 for 5 minutes.

UGT2B4 = UGT2B4 (Homo sapiens, UniProt P06133); settings: Table 10
UGT2B4, sequence (P06133 24-528): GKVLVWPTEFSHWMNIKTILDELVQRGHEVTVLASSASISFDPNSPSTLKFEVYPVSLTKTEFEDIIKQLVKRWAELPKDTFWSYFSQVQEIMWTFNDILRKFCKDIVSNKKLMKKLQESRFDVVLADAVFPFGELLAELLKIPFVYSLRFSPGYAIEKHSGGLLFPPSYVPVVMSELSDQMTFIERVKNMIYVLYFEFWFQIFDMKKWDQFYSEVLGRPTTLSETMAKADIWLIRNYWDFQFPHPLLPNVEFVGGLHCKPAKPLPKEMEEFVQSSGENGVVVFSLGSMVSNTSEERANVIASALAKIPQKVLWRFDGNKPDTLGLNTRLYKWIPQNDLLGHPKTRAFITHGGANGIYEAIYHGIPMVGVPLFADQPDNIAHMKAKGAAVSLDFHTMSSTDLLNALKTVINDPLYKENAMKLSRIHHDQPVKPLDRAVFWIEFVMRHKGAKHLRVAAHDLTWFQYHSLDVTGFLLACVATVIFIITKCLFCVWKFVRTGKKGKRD

CYP2E1 = CYP2E1 (Homo sapiens, UniProt P05181); settings: Table 6
CYP2E1, sequence (P05181 whole entry): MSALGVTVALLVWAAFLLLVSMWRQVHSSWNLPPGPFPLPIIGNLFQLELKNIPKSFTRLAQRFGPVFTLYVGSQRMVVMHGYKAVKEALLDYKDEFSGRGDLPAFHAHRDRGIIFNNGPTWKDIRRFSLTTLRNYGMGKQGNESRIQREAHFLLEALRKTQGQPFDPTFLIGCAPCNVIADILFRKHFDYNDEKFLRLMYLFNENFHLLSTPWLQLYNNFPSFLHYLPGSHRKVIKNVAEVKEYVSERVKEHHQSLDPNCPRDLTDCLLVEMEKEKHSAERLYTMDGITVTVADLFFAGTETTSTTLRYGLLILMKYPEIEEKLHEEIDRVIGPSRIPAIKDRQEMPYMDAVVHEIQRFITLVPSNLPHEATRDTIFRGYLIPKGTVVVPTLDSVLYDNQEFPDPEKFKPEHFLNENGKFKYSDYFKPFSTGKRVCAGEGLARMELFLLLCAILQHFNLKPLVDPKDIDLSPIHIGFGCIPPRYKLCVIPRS

[1] = system: UGTs 1A1, 1A4, 1A6, 1A9, 2B4, 2B7, 2B10, 2B15 and 2B17; assay: Selectivity over other major hepatic UGT enzymes (panel statement); type: biochemical, human

UGT1A9, sequence (O60656 26-530): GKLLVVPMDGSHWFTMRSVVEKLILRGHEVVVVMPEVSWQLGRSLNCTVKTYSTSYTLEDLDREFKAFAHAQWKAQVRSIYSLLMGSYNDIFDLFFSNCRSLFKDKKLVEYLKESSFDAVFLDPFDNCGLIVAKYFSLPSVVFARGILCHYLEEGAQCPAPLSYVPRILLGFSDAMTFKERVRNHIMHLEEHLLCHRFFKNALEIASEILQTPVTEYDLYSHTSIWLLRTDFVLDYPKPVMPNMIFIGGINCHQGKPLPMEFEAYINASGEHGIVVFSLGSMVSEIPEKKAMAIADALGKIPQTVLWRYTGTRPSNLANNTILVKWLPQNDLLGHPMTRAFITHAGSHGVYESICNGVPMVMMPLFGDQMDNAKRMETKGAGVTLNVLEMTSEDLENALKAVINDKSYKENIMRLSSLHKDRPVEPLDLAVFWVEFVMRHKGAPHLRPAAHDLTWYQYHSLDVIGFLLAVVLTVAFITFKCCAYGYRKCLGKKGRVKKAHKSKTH
CYP2C9, sequence (P11712 whole entry): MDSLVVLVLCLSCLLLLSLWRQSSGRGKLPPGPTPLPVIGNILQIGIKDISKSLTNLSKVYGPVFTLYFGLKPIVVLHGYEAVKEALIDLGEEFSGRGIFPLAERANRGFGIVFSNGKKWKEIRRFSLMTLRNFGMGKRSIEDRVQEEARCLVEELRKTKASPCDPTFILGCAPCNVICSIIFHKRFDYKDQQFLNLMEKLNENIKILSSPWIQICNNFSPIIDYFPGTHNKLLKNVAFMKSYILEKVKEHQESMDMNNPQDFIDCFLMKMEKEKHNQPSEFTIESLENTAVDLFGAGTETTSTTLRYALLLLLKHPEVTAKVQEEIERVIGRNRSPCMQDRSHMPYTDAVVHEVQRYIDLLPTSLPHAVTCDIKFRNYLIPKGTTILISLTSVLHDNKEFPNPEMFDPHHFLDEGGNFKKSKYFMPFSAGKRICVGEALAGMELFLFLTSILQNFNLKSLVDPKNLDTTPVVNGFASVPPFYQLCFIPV

With `COc1ccncc1C#CCN` [Compound K, 3-(4-methoxypyridin-3-yl)prop-2-yn-1-amine] as the compound, how does the “IC50 ratio UGT1A9/UGT2B10” value (UGT1A9) read?
Its value is 5.

What about the “IC50 ratio CYP2C9/CYP2A6” value (CYP2C9) of the same compound?
The value was 8.2.

And the IC50 (UGT2B10; IC50 against UGT2B10)?
The IC50 was under 60 µM.

And the IC50 (UGT2B10; IC50 against UGT2B10 (μM), Table 9, pooled human liver microsomes, nicotine 500 μM)?
The IC50 was 33 µM.

What about the “IC50 ratio UGT2B4/UGT2B10” value (UGT2B4) of the same compound?
Its value is 3.5.

And the “IC50 ratio CYP2E1/CYP2A6” value (CYP2E1)?
Its value is 5.3.

And the “UGThepatic/UGT2B10 IC50 ratio against all UGT enzymes tested” value [1]?
Its value is over 3.5.
